Where only a bound is given, the exact number is not on record here.

Experiment [1] deals with Sodium channel regulatory subunit beta-2 (Homo sapiens, UniProt O60939). Description: Selectivity interaction (Enzyme and Receptor panel (MSD Pharma/Taiwan)) EUB0000753a SCN2B.
Experiment [2] addresses Mitogen-activated protein kinase kinase kinase kinase 5 (Homo sapiens) (UniProt Q9Y4K4). The following applies: at 1 µM.
Experiment [3] concerns the target Mitogen-activated protein kinase kinase kinase kinase 4 (Homo sapiens) (UniProt O95819). To be noted: at 1 µM.
In experiment [4] the target is Epidermal growth factor receptor (Homo sapiens, UniProt P00533). To be noted: at 1 µM.
Experiment [5] addresses Activin receptor type-2A (Homo sapiens) (UniProt P27037). The following applies: at 1 µM.
The target in experiment [6] is Ribosomal protein S6 kinase alpha-6 (Homo sapiens) (UniProt Q9UK32). Description: Selectivity interaction (Kinase panel (Millipore)) EUB0000153b RPS6KA6. The following applies: at 10 µM.
The target of experiment [7] is T1, Serine/threonine-protein kinase Sgk1 (Homo sapiens) (UniProt O00141).
T1 sequence (whole entry): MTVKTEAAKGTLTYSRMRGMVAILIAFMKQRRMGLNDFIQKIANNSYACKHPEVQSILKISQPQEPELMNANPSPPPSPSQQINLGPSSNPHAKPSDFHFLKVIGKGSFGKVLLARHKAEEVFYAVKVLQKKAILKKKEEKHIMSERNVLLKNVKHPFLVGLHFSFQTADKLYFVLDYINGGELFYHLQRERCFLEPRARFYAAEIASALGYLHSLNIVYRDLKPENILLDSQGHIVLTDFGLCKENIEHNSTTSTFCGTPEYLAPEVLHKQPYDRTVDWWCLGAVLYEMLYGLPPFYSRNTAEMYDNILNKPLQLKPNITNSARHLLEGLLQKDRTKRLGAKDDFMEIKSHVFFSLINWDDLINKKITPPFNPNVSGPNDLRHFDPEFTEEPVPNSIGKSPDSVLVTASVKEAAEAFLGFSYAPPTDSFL
As to the kind of experiment: Selectivity interaction (Kinase panel (Millipore)) EUB0000153b SGK1. The following applies: at 10 µM.

Experiment [8] addresses Serine/threonine-protein kinase Sgk2 (Homo sapiens) (UniProt Q9HBY8). Description: Selectivity interaction (Kinase panel (Millipore)) EUB0000153b SGK2. To be noted: at 10 µM.
Experiment [9] deals with NUAK family SNF1-like kinase 1 (Homo sapiens) (UniProt O60285). Description: Selectivity interaction (Kinase panel (Millipore)) EUB0000153b NUAK1. The following applies: at 10 µM.
In experiment [10] the target is Glycogen synthase kinase-3 beta (Homo sapiens, UniProt P49841). Description: Selectivity interaction (Kinase panel (enzymatic assay)) EUB0000153b GSK3B.
Experiment [11] has as its target Inhibitor of nuclear factor kappa-B kinase subunit alpha (Homo sapiens, UniProt O15111). Description: Selectivity interaction (Kinase panel (enzymatic assay)) EUB0000153b CHUK.
For experiment [12], the target named is Mitogen-activated protein kinase kinase kinase 5 (Homo sapiens, UniProt Q99683). Description: Selectivity interaction (Kinase panel (enzymatic assay)) EUB0000153b MAP3K5.
Experiment [13] has as its target RAC-alpha serine/threonine-protein kinase (Homo sapiens, UniProt P31749). Description: Selectivity interaction (Kinase panel (enzymatic assay)) EUB0000153b AKT1.
Experiment [14] addresses Tyrosine-protein kinase SYK (Homo sapiens, UniProt P43405). As to the kind of experiment: Selectivity interaction (Kinase panel (enzymatic assay)) EUB0000153b SYK.
Experiment [15] has as its target Vascular endothelial growth factor receptor 2 (Homo sapiens, UniProt P35968). As to the kind of experiment: Selectivity interaction (Kinase panel (enzymatic assay)) EUB0000153b KDR.
For another experiment, the target named is TGF-beta receptor type-1 (Homo sapiens, UniProt P36897). Description: Selectivity interaction (Kinase panel (enzymatic assay)) EUB0000153b TGFBR1.
Experiment [16] concerns the target Rho-associated protein kinase 2 (Homo sapiens) (UniProt O75116). Description: Selectivity interaction (Kinase panel (Millipore)) EUB0000153b ROCK2. To be noted: at 10 µM.
Experiment [17] has as its target Phosphatidylinositol 4,5-bisphosphate 3-kinase catalytic subunit gamma isoform (Homo sapiens, UniProt P48736). As to the kind of experiment: Selectivity interaction (Kinase panel (enzymatic assay)) EUB0000153b PIK3CG.
Experiment [18] concerns the target cAMP-dependent protein kinase catalytic subunit PRKX (Homo sapiens) (UniProt P51817). Description: Selectivity interaction (Kinase panel (Millipore)) EUB0000153b PRKX. The following applies: at 10 µM.
The target in experiment [19] is Ribosomal protein S6 kinase alpha-2 (Homo sapiens) (UniProt Q15349). As to the kind of experiment: Selectivity interaction (Kinase panel (Millipore)) EUB0000153b RPS6KA2. To be noted: at 10 µM.
For experiment [20], the target named is Dual specificity mitogen-activated protein kinase kinase 1 (Homo sapiens, UniProt Q02750). As to the kind of experiment: Selectivity interaction (Kinase panel (enzymatic assay)) EUB0000684a MAP2K1.
The target in experiment [21] is Dual specificity mitogen-activated protein kinase kinase 2 (Homo sapiens, UniProt P36507). Description: Selectivity interaction (Kinase panel (enzymatic assay)) EUB0000684a MAP2K2.
Experiment [22] concerns the target Dual specificity tyrosine-phosphorylation-regulated kinase 1B (Homo sapiens, UniProt Q9Y463). Description: Selectivity interaction (KinomeScan (DiscoverX)) EUB0000297b DYRK1B. To be noted: at 1 µM.
Experiment [23] deals with T2, Gamma-aminobutyric acid receptor subunit alpha-1 (Homo sapiens, UniProt P14867).
T2 sequence (P14867 whole entry): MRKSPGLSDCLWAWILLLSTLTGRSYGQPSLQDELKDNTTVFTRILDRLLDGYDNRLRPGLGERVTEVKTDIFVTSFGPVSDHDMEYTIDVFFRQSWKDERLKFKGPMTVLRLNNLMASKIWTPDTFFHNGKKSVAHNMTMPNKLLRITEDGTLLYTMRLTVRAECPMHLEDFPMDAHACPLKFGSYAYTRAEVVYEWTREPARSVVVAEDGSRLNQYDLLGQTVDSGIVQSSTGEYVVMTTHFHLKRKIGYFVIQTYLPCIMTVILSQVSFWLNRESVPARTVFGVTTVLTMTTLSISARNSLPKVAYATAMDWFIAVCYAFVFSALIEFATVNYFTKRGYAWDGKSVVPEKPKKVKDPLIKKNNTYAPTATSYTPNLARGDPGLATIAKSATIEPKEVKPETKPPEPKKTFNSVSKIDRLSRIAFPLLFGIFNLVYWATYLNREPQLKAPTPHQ
Description: Selectivity interaction (GPCR panel (PDSP screen)) EUB0000297b GABRA1.

The target of experiment [24] is Rho-associated protein kinase 1 (Homo sapiens) (UniProt Q13464). Description: Selectivity interaction (KinomeScan (DiscoverX)) EUB0000297b ROCK1. The following applies: at 1 µM.

Chain of cAMP-dependent protein kinase catalytic subunit PRKX (Homo sapiens) (P51817 whole entry): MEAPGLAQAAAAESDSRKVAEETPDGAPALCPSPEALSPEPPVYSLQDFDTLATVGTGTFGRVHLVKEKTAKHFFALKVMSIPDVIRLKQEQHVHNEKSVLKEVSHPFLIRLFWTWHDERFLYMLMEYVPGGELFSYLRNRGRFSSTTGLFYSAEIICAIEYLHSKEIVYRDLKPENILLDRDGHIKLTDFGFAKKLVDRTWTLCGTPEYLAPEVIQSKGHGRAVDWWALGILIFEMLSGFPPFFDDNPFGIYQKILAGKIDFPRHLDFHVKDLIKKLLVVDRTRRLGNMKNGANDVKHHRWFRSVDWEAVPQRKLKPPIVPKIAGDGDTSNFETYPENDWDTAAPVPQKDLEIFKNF
Chain of Phosphatidylinositol 4,5-bisphosphate 3-kinase catalytic subunit gamma isoform (P48736 whole entry, canonical isoform): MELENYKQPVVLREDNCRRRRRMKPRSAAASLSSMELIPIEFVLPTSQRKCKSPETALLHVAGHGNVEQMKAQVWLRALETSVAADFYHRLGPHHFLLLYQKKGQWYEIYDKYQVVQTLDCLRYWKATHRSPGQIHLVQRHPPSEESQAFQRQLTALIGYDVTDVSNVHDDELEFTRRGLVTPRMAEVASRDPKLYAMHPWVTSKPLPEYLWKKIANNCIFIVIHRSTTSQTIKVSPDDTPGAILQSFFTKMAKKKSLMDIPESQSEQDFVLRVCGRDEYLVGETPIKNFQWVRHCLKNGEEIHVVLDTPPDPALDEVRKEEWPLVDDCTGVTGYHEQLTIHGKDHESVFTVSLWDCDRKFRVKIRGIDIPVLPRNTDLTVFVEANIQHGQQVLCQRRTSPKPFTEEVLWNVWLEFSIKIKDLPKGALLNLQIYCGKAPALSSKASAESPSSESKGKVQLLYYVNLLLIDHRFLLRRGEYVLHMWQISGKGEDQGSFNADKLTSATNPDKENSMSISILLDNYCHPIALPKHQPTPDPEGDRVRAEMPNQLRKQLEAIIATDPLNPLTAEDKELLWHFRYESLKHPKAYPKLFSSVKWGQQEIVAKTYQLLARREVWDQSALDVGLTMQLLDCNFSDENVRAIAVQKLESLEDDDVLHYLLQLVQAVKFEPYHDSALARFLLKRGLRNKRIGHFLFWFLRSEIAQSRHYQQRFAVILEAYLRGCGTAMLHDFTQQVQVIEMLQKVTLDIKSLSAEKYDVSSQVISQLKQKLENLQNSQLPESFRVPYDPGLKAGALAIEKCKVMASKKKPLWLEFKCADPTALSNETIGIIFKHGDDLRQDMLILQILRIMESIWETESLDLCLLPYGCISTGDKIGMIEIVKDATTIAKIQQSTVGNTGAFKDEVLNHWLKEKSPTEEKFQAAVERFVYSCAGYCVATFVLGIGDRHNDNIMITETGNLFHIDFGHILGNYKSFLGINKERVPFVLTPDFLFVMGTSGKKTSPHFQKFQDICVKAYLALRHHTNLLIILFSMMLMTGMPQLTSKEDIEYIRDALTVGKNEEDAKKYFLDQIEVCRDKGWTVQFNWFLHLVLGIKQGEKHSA
Chain of Serine/threonine-protein kinase Sgk2 (Homo sapiens) (Q9HBY8 whole entry): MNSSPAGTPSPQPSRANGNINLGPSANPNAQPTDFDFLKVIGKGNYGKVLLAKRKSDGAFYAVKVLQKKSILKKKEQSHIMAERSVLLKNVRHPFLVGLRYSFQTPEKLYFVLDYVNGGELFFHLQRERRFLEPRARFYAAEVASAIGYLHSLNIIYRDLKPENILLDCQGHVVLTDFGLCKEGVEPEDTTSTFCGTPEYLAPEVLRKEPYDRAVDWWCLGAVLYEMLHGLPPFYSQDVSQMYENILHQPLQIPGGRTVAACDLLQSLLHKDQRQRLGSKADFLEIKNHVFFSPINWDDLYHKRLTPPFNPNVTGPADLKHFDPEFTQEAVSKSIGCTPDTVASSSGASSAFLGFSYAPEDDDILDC
Chain of TGF-beta receptor type-1 (P36897 whole entry): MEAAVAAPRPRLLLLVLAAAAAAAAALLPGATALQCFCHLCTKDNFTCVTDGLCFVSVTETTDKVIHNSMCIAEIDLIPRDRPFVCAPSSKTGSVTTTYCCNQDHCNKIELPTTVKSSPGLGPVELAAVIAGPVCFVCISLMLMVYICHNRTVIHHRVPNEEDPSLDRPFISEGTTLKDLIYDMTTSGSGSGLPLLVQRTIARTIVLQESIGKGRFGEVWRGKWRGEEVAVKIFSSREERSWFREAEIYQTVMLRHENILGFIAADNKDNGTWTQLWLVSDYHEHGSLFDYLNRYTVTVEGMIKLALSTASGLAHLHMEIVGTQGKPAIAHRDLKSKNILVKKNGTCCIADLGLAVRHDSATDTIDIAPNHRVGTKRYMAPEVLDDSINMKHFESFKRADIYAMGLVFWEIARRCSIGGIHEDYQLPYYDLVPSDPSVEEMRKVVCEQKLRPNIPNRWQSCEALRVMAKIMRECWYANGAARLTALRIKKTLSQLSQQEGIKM
Chain of Rho-associated protein kinase 2 (Homo sapiens) (O75116 whole entry, looked up, canonical isoform): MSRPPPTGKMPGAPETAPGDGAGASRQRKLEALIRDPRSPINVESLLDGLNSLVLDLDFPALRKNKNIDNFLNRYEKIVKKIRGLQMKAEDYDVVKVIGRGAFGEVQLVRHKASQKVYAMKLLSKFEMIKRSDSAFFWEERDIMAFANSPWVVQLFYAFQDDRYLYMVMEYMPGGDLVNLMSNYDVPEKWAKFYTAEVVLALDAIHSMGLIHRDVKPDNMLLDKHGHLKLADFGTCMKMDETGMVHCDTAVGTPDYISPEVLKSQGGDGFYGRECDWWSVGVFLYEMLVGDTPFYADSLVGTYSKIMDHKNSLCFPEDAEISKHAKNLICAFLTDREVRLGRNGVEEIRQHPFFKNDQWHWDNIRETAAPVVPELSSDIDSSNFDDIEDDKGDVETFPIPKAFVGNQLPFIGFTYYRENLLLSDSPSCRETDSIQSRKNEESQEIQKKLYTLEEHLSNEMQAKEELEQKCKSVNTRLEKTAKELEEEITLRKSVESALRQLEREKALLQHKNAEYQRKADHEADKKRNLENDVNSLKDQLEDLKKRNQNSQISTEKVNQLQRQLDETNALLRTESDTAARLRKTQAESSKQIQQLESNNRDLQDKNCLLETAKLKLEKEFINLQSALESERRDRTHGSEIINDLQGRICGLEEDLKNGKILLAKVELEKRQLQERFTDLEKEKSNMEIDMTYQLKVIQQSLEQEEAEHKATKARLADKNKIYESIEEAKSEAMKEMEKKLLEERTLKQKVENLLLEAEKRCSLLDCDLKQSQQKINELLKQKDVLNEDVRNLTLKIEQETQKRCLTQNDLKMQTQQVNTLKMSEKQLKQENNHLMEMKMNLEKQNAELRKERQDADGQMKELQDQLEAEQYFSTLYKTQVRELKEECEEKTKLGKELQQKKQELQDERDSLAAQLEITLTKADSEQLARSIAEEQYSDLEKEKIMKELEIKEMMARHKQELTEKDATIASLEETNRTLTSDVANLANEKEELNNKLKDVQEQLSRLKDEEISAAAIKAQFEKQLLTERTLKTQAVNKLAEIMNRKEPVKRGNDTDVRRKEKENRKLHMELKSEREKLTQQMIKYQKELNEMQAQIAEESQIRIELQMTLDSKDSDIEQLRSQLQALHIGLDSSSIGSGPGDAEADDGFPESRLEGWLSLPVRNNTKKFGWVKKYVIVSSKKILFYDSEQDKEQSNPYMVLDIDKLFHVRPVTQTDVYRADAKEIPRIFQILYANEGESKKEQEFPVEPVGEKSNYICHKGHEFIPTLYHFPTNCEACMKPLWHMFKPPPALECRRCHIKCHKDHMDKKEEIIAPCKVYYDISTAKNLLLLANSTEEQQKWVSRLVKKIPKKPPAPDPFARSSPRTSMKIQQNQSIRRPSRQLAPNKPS
Chain of Dual specificity tyrosine-phosphorylation-regulated kinase 1B (Q9Y463 whole entry, looked up): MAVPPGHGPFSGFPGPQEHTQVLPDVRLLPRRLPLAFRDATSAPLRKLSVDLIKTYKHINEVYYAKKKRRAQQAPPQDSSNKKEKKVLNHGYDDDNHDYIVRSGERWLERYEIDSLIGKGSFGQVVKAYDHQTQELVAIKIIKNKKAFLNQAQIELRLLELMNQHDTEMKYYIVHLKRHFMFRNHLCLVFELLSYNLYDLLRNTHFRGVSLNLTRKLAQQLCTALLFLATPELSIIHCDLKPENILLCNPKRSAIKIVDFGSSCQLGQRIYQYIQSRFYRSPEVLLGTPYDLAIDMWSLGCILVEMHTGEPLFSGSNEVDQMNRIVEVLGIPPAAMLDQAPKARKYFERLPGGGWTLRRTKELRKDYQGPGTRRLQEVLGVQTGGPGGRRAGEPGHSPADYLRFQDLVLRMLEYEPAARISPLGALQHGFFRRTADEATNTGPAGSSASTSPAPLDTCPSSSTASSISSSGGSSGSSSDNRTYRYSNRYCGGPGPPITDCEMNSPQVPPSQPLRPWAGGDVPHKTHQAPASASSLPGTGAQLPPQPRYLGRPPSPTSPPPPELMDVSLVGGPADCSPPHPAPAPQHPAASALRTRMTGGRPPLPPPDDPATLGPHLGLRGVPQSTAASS
Chain of Activin receptor type-2A (Homo sapiens) (P27037 whole entry): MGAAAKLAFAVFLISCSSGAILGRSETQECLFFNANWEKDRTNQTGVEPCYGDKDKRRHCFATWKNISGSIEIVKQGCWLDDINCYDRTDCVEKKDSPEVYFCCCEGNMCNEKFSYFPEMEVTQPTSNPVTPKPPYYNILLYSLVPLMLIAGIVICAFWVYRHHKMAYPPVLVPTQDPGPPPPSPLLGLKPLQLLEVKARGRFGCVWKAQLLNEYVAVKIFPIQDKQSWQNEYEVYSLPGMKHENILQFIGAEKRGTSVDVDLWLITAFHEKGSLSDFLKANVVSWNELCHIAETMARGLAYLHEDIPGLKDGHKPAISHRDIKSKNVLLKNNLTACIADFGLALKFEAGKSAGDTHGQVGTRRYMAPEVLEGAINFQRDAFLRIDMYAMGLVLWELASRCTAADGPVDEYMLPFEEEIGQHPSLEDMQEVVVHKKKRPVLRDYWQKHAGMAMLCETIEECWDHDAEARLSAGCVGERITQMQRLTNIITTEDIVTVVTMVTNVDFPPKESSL

As a reminder, the IC50 is the midpoint of a concentration-inhibition curve. Consider `COc1cc(-c2cn([C@H]3CCc4c(F)cccc4N(CC(F)(F)F)C3=O)nn2)ccc1-n1cnc(C)c1`, for which inhibition in experiment [1] was half-maximal at 1 µM (IC50). For the same molecule, the % of control in experiment [2] is 5.8%; in experiment [3] it was 0%; in [4] it was 0%; in [5], 0%.
On to `CNc1nc(-c2ccc3c(N)n[nH]c3c2)cc(N2C[C@@H](C(=O)NC3CCCCC3)CC[C@H]2C)n1`, for which the % of control was determined as 12% in [6]; 13% in [7]; 0% in [8]; 16% in experiment [9]; 17% in experiment [16]; 4% in experiment [18]. In [19], this molecule came in with a % of control of 14%. The IC50 in experiment [10], in experiment [11], in experiment [12], in experiment [13], in experiment [14] and in [15] was more than 10 µM in each case. For the same molecule, the IC50 (on TGF-beta receptor type-1; in experiment [17]) was more than 10 µM throughout.
As to `O=C(c1ccc(F)c(F)c1Nc1ccc(I)cc1F)N1CC(O)([C@@H]2CCCCN2)C1` [COBIMETINIB], the figures for the IC50 in experiment [20] and in [21] were 0.031 µM and 0.023 µM, respectively.
A word on the Ki: it is the dissociation constant of the complex between target and ligand, obtained from inhibition or displacement. As for `CN([C@@H]1CCc2c(CC(=O)O)c3ccccc3n2C1)S(=O)(=O)c1ccc(F)cc1` [MK-7246], the figures for the % of control in experiment [22] and in experiment [24] were 44% and 34%, respectively. In [23], this molecule yielded a Ki of 1.11 µM.

The record behind these values is ChEMBL document CHEMBL5212743, “Selectivity Literature for EUbOPEN Chemogenomics Library wave 3” (2023).
